≈ marks a conversion by molar mass, not a printed value. Where two headings read alike, the source gives them in different places.
Experiments:
[1] = test system: St. aureus; assay: E-test (Epsilometer-test), in vitro antibacterial effectiveness; type: cell-based; conditions: 27 ocular isolates of St. aureus
From the text: (§1) In order to assay the effectiveness of gemifloxacin against the most representative pathogenic strains in ophthalmic infections, its activity was verified in vitro, in terms of MIC50 and MIC90 with the E-test method described by V. Lorian in "Antibiotics in laboratory medicine" (IV ed. 1996, 23-28) and compared to moxifloxacin, ciprofloxacin, levofloxacin and ofloxacin against 85 ocular bacterial isolates subdivided as follows: • 27 St. aureus, 29 S. epidermidis, 16 Coagulase Negative Staphylococci (CNS), 8 Ps. aeruginosa and 5 Serratia marcescens. The following ATCC bacterial strains were also included: Staphylococcus aureus 25923, Staphylococcus aureus 29213, Staphylococcus aureus 43300, S. epidermidis 35984, Pseudomonas aeruginosa 27853 and Pseudomonas aeruginosa 9027.
(§2) The staphylococci also included methicillin resistant strains (MRSA and MRSE).

[2] = test system: St. epidermidis; assay: as above; type: cell-based; conditions: Staphylococcus epidermidis; 29 ocular isolates of St. epidermidis
From the text: as §1, §2

[3] = test system: St. coagulase negative; assay: as above; type: cell-based, Coagulase Negative Staphylococci (CNS); conditions: 16 ocular isolates
From the text: as §1, §2

[4] = test system: Ps. aeruginosa; assay: as above; type: cell-based; conditions: Pseudomonas aeruginosa; 8 ocular isolates of Ps. aeruginosa
From the text: (§3) In order to assay the effectiveness of gemifloxacin against the most representative pathogenic strains in ophthalmic infections, its activity was verified in vitro, in terms of MIC50 and MIC90 with the E-test method described by V. […] The following ATCC bacterial strains were also included: Staphylococcus aureus 25923, Staphylococcus aureus 29213, Staphylococcus aureus 43300, S. epidermidis 35984, Pseudomonas aeruginosa 27853 and Pseudomonas aeruginosa 9027.

[5] = test system: Serratia marcescens; assay: as above; type: cell-based; conditions: 5 ocular isolates of Serratia marcescens
From the text: as §3

[6] = In vivo pharmacokinetic test: ocular tissue distribution after single ophthalmic administration; design: species or system pigmented rabbits; conditions: rabbit, topical, 30 µl of 0.3% solution per eye
Description: The penetration capacity of gemifloxacin was determined in the cornea, conjunctiva, aqueous humour and iris-ciliary body after single ophthalmic administration (30 µl) of the solution at 0.3% in both eyes of pigmented rabbits. The tissues were collected at the following times: 15 minutes, 30 minutes, 1, 2, 4, 8, 12, 24 and 48 hours. Quantitative analysis of the samples was carried out by a LC/MS/MS method after suitable extraction of the active principle from the tissue and expressed as µg/g or µg/ml of tissue.

[7] = test system: ocular St. aureus isolate (7786); assay: In vivo effectiveness: bacterial load (CFU/g) in cornea, bacterial keratitis model; design: species or system New Zealand albino rabbits
Description: (§4) The effectiveness and accumulation of gemifloxacin in the cornea and aqueous humour were determined in vivo after administration of the 0.3% gemifloxacin compositions (emulsion and aqueous solution) and compared to 0.3% norfloxacin and ofloxacin in aqueous solution, in New Zealand albino rabbits having been induced with bacterial keratitis (Survey of Ophthalmology, vol. 50, suppl. Nov. 2005, p.S32-S48) by intrastromal injection of an inoculum of an ocular St. aureus isolate (7786).
(§5) Male New Zealand albino rabbits were used (Harlan Italia) into which the keratitis had been induced - following anaesthesia with ketamine (37.5 mg/kg) and xylazine (10 mg/kg) by intramuscular means and novesine by topical means (2 drops per eye) - by intrasomal injection of a suspension of the ocular St. aureus isolate 7786 in PBS (Phosphate Buffered Solution). The injection was carried out using an insulin syringe with a 30-gauge needle in each cornea of each rabbit.
(§6) In the first experiment the following treatments were compared: 0.15% aqueous gemifloxacin solution, 0.3% aqueous gemifloxacin solution, 0.3% aqueous norfloxacin solution and physiological solution (0.9% NaCl) as control. The treatment was undertaken every 2 hours over 3 consecutive treatment days (5 administrations/day). The tissues were collected an hour after the last treatment, with the end point being after one day and after three days of treatment.
(§7) In the second experiment the following treatment groups were compared: 0.3% aqueous gemifloxacin solution, 0.3% gemifloxacin emulsion, 0.3% aqueous ofloxacin solution and physiological solution (0.9% NaCl) as control. The treatment was carried out every hour for only one day of treatment (7 administrations/day). The tissues were collected from the animals in each group, killed one hour after the last treatment.
All the compositions used in the two experiments described were administered at 50 µl per treatment.
The bacterial load of each sample was determined by counting CFUs (Colony Forming Units) on a filter and plate, to be reported as CFU/g of tissue.

[8] = design: species or system New Zealand albino rabbits; conditions: male, New Zealand albino, rabbit, in vivo
Description: as §4, §5, §6, §7
All the compositions used in the two experiments described were administered at 50 µl per treatment. […]
The fluorescence value obtained was interpolated using the relative standard curve and expressed as nanograms/ml or nanograms/g of tissue.

[9] = test system: St. aureus; conditions: literature, cited from earlier work
[10] = Staphylococcus aureus, read-out: MIC90
[11] = conjunctiva, single ophthalmic administration (30 µl) of 0.3% solution
[12] = cornea, single ophthalmic administration (30 µl) of 0.3% solution
[13] = first experiment, 0.3% aqueous solution, every 2 hours, 5 administrations/day, after one and three days, compared with control (gemifloxacin also vs norfloxacin)

Row | Compound | MIC50 ([1]; Staphylococcus aureus) [µg/mL] | MIC90 [1, 10] [µg/mL] | MIC50 [2] [µg/mL] | MIC90 [2] [µg/mL] | MIC50 [3] [µg/mL] | MIC90 [3] [µg/mL] | MIC50 [4] [µg/mL] | MIC90 [4] [µg/mL] | MIC50 [5] [µg/mL] | MIC90 [5] [µg/mL] | reduction in bacterial load in the cornea [7, 13] | concentration in the cornea relative to MIC for St. aureus [8] | also measured
1 | CO/N=C1\CN(c2nc3c(cc2F)c(=O)c(C(=O)O)cn3C2CC2)CC1CN (racemic) [Gemifloxacin, (R,S)-7-(3-aminomethyl-4-methoxyiminopyrrolidin-1yl)-1-cyclopropyl-6-fluoro-4-oxo-1,4-dihydro-1,8-naphthyridin-3-carboxylic acid] | 0.032 (≈ 0.0822 µM) | 0.064 (≈ 0.164 µM) | 0.023 (≈ 0.0591 µM) | 0.094 (≈ 0.241 µM) | 0.016 (≈ 0.0411 µM) | 0.047 (≈ 0.121 µM) | 0.125 (≈ 0.321 µM) | 0.25 (≈ 0.642 µM) | 0.125 (≈ 0.321 µM) | 0.19 (≈ 0.488 µM) | statistically significant reduction in bacterial load | – | Cmax ([6]; aqueous humour, single administration of 0.3% aqueous solution, healthy eyes): 26 ng/mL; Tmax ([6]; aqueous humour, single ophthalmic administration (30 µl) of 0.3% solution): 2 h; Cmax ([6]; conjunctiva, single administration of 0.3% aqueous solution, healthy eyes): 980 ng/mL; Cmax [6, 11]: 980 ng/g; Tmax [6, 11]: 0.25 h; Cmax ([6]; cornea, single administration of 0.3% aqueous solution, healthy eyes): 2600 ng/mL; Cmax [6, 12]: 2600 ng/g; Tmax [6, 12]: 0.25 h; Cmax ([6]; iris-ciliary body, single administration of 0.3% aqueous solution, healthy eyes): 460 ng/g; Tmax ([6]; iris-ciliary body, single ophthalmic administration (30 µl) of 0.3% solution): 2 h; reduction in bacterial load in the cornea ([7]; first experiment, 0.15% aqueous solution, every 2 hours, 5 administrations/day, after one and three days, compared to control and 0.3% norfloxacin): statistically significant reduction in bacterial load; reduction in bacterial load in the cornea ([7]; second experiment, 0.3% aqueous solution, every hour, 7 administrations, one day, compared to control): statistically significantly reduce; reduction in bacterial load in the cornea ([7]; second experiment, 0.3% emulsion, every hour, 7 administrations, one day, compared to control): statistically significantly reduce; reduction in bacterial load relative to the reduction effected by ofloxacin ([7]; second experiment, gemifloxacin-containing compositions (0.3% aqueous solution and 0.3% emulsion) vs 0.3% ofloxacin solution): statistically significant
2 | O=C(O)c1cn(C2CC2)c2cc(N3CCNCC3)c(F)cc2c1=O [Ciprofloxacin] | 0.5 (≈ 1.51 µM) | > 32 | 0.19 (≈ 0.573 µM) | 0.5 (≈ 1.51 µM) | 0.25 (≈ 0.754 µM) | 0.25 (≈ 0.754 µM) | 0.125 (≈ 0.377 µM) | 0.25 (≈ 0.754 µM) | 0.064 (≈ 0.193 µM) | 0.125 (≈ 0.377 µM) | – | – | –
3 | COc1c(N2C[C@@H]3CCCN[C@@H]3C2)c(F)cc2c(=O)c(C(=O)O)cn(C3CC3)c12 [Moxifloxacin] | 0.064 (≈ 0.159 µM) | 0.38 (≈ 0.947 µM) | 0.047 (≈ 0.117 µM) | 0.094 (≈ 0.234 µM) | 0.047 (≈ 0.117 µM) | 0.094 (≈ 0.234 µM) | 0.5 (≈ 1.25 µM) | 1 (≈ 2.49 µM) | 0.19 (≈ 0.473 µM) | 0.38 (≈ 0.947 µM) | – | – | –
4 | CCn1cc(C(=O)O)c(=O)c2cc(F)c(N3CCNCC3)cc21 [norfloxacin] | – | – | – | – | – | – | – | – | – | – | does not lead to a reduction in bacterial load | lower corneal concentrations than its MIC50-MIC90 range | MIC50 ([9]; lower end of MIC50-MIC90 range for St. aureus): 0.5 µg/mL (≈ 1.57 µM); MIC90 ([9]; upper end of MIC50-MIC90 range for St. aureus): 2 µg/mL (≈ 6.26 µM)

More lines, main results first:

Row | MIC50 ([1]; Staphylococcus aureus) [µg/mL] | MIC90 [1, 10] [µg/mL] | MIC50 [2] [µg/mL] | MIC90 [2] [µg/mL] | MIC50 [3] [µg/mL] | MIC90 [3] [µg/mL] | MIC50 [4] [µg/mL] | MIC90 [4] [µg/mL] | MIC50 [5] [µg/mL] | MIC90 [5] [µg/mL] | Compound | reduction in bacterial load in the cornea [7, 13] | concentration in the cornea relative to MIC for St. aureus [8] | also measured
5 | 0.25 (≈ 0.692 µM) | 0.75 (≈ 2.08 µM) | 0.19 (≈ 0.526 µM) | 0.38 (≈ 1.05 µM) | 0.25 (≈ 0.692 µM) | 0.25 (≈ 0.692 µM) | 0.5 (≈ 1.38 µM) | 0.75 (≈ 2.08 µM) | 0.125 (≈ 0.346 µM) | 0.25 (≈ 0.692 µM) | C[C@H]1COc2c(N3CCN(C)CC3)c(F)cc3c(=O)c(C(=O)O)cn1c23 [Levofloxacin] | – | – | –
6 | 0.5 (≈ 1.38 µM) | 1.5 (≈ 4.15 µM) | 0.25 (≈ 0.692 µM) | 16 (≈ 44.3 µM) | 0.25 (≈ 0.692 µM) | 0.5 (≈ 1.38 µM) | 0.5 (≈ 1.38 µM) | 1 (≈ 2.77 µM) | 0.19 (≈ 0.526 µM) | 0.38 (≈ 1.05 µM) | CC1COc2c(N3CCN(C)CC3)c(F)cc3c(=O)c(C(=O)O)cn1c23 (stereo not shown) [Ofloxacin] | – | near to its MIC50 | MIC90 [1]: 1.5 µg/mL (≈ 4.15 µM); MIC90 ([1]; listed as ofloxacin): 1.15 µg/mL (≈ 3.18 µM); concentration in the aqueous humour [8]: about 1.5 µg/ml

— patent EP2143422A1, “Ophthalmic compositions containing gemifloxacin for the treatment of ocular infections” (S.I.F.I - SOCIETÀ INDUSTRIA FARMACEUTICA ITALIANA - S.P.A., priority 2008, dated 2010)
